Reference: patent US20230114728A1 (Venatorx Pharmaceuticals, Inc., priority 2019, published 2023)
Converted amounts (≈) assume the structure as drawn.

Assays:
Assay type in all cases: cell-based
E. coli AG100A = experiment: Broth microdilution MIC in CAMHB; details: Escherichia coli, read-out: Minimum Inhibitory Concentration, E. coli AG100A
Outline: (§1)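 Lowest compound concentration with no visible growth after 16-20 h at 37 °C defines MIC. Plates of 2-fold serial dilutions in cation-adjusted Mueller Hinton broth received 2-8×10^5 CFU/mL of exponentially grown cells, per CLSI methods; panel spans reference, hyper-permeable and efflux-pump-deleted strains.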

E. coli ATCC 25922 = experiment: Broth microdilution MIC in CAMHB; details: Escherichia coli, ATCC25922; E. coli ATCC 25922; MHB; read-out: Minimum Inhibitory Concentration, E. coli 25922
Outline: as §1

E. coli D22 = experiment: Broth microdilution MIC in CAMHB; details: Escherichia coli; E. coli D22 (hyper-permeable); MHB; read-out: Minimum Inhibitory Concentration, E. coli D22
Outline: as §1

[1] = test system: K. pneumoniae SI-117 producing VIM-1; experiment: Broth microdilution MIC in CAMHB; details: Klebsiella pneumoniae, read-out: Minimum Inhibitory Concentration, K. pneumoniae SI-117
Outline: as §1

P. aeruginosa ATCC 35151 = experiment: Broth microdilution MIC in CAMHB; details: Pseudomonas aeruginosa, ATCC35151; MHB; hyper-permeable strain; read-out: Minimum Inhibitory Concentration, P. aeruginosa ATCC 35151
Outline: as §1

[2] = test system: N. gonorrhoeae ATCC 49226; experiment: Liquid broth MIC in Fastidious broth; details: Neisseria gonorrhoeae, ATCC49226; N. gonorrhoeae strain ATCC 49226; Fastidious broth; read-out: Minimum Inhibitory Concentration, N. gonorrhoeae ATCC 49226
Outline: (§2)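 Colonies were swabbed from chocolate agar after 24 h growth and standardised by optical density at 600 nm. Compounds were serially diluted twofold in Fastidious broth, and bacteria added to give 5×10^5 CFU/mL. After about 24 h at 36 °C in 5% CO2, the lowest concentration allowing under 10% growth was taken as MIC.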

N. gonorrhoeae FA1090 = experiment: Liquid broth MIC in Fastidious broth; details: Neisseria gonorrhoeae; N. gonorrhoeae strain FA1090; Fastidious broth; read-out: Minimum Inhibitory Concentration, N. gonorrhoeae FA1090
Outline: as §2

N. gonorrhoeae H041 = experiment: Liquid broth MIC in Fastidious broth; details: Neisseria gonorrhoeae, H041, read-out: Minimum Inhibitory Concentration, N. gonorrhoeae H041
Outline: as §2

N. gonorrhoeae WHO G = experiment: Liquid broth MIC in Fastidious broth; details: Neisseria gonorrhoeae; N. gonorrhoeae strain WHO G; Fastidious broth; read-out: Minimum Inhibitory Concentration, N. gonorrhoeae WHO G
Outline: as §2

N. gonorrhoeae WHO K = experiment: Liquid broth MIC in Fastidious broth; details: Neisseria gonorrhoeae, read-out: Minimum Inhibitory Concentration, N. gonorrhoeae WHO K
Outline: as §2

N. gonorrhoeae WHO L = experiment: Liquid broth MIC in Fastidious broth; details: Neisseria gonorrhoeae; N. gonorrhoeae strain WHO L; Fastidious broth; read-out: Minimum Inhibitory Concentration, N. gonorrhoeae WHO L
Outline: as §2

N. gonorrhoeae WHO Q = experiment: Liquid broth MIC in Fastidious broth; details: Neisseria gonorrhoeae, read-out: Minimum Inhibitory Concentration, N. gonorrhoeae WHO Q
Outline: as §2

N. gonorrhoeae WHO Z = experiment: Liquid broth MIC in Fastidious broth; details: Neisseria gonorrhoeae, read-out: Minimum Inhibitory Concentration, N. gonorrhoeae WHO Z
Outline: as §2

SMILES	MIC (E. coli AG100A) [µg/mL]	MIC (E. coli ATCC 25922) [µg/mL]	MIC (E. coli D22) [µg/mL]	MIC [1] [µg/mL]	MIC (P. aeruginosa ATCC 35151) [µg/mL]	MIC [2] [µg/mL]	MIC (N. gonorrhoeae FA1090) [µg/mL]	MIC (N. gonorrhoeae H041) [µg/mL]	MIC (N. gonorrhoeae WHO G) [µg/mL]	MIC (N. gonorrhoeae WHO K) [µg/mL]	MIC (N. gonorrhoeae WHO L) [µg/mL]	MIC (N. gonorrhoeae WHO Q) [µg/mL]	MIC (N. gonorrhoeae WHO Z) [µg/mL]
NCCN1CCN(C(=O)NC(C(=O)N[C@H]2Cc3cccc(C(=O)O)c3OB2O)c2c(F)c(F)c(O)c(F)c2F)C(=O)C1=O (stereo partly drawn) [Example 174, (3R)-3-(2-(4-(2-aminoethyl)-2,3-dioxopiperazine-1-carboxamido)-2-(2,3,5,6-tetrafluoro-4-hydroxyphenyl)acetamido)-2-hydroxy-3,4-dihydro-2H-benzo[e][1,2]oxaborinine-8-carboxylic acid]	2 to 4 (≈ 3.27 to 6.54 µM)	32 to 64 (≈ 52.4 to 105 µM)	2 to 4 (≈ 3.27 to 6.54 µM)	> 128	0.5 to 1 (≈ 0.818 to 1.64 µM)	4 to 8 (≈ 6.54 to 13.1 µM)	0.25 to 0.5 (≈ 0.409 to 0.818 µM)	> 64	1 to 2 (≈ 1.64 to 3.27 µM)	> 64	16 to 32 (≈ 26.2 to 52.4 µM)	16 to 32 (≈ 26.2 to 52.4 µM)	16 to 32 (≈ 26.2 to 52.4 µM)
NCCN1CCN(C(=O)N[C@@H](C(=O)N[C@H]2Cc3cccc(C(=O)O)c3OB2O)c2cc(F)c(O)c(F)c2)C(=O)C1=O (single isomer, unassigned) [Example 159]	2 to 4 (≈ 3.48 to 6.95 µM)	8 to 16 (≈ 13.9 to 27.8 µM)	2 to 4 (≈ 3.48 to 6.95 µM)	32 to 64 (≈ 55.6 to 111 µM)	< 0.25	16 to 32 (≈ 27.8 to 55.6 µM)	1 to 2 (≈ 1.74 to 3.48 µM)	> 64	4 to 8 (≈ 6.95 to 13.9 µM)	> 64	> 64	> 64	> 64
NCCN1CCN(C(=O)NC(C(=O)N[C@H]2Cc3cccc(C(=O)O)c3OB2O)c2ccc(C(=O)O)cc2O)C(=O)C1=O (stereo partly drawn) [Example 142, (3R)-3-(2-(4-(2-aminoethyl)-2,3-dioxopiperazine-1-carboxamido)-2-(4-carboxy-2-hydroxyphenyl)acetamido)-2-hydroxy-3,4-dihydro-2H-benzo[e][1,2]oxaborinine-8-carboxylic acid]	32 to 64 (≈ 54.9 to 110 µM)	> 128	8 to 16 (≈ 13.7 to 27.4 µM)	> 128	2 to 4 (≈ 3.43 to 6.86 µM)	16 to 32 (≈ 27.4 to 54.9 µM)	4 to 8 (≈ 6.86 to 13.7 µM)	> 64	4 to 8 (≈ 6.86 to 13.7 µM)	> 64	> 64	> 64	> 64
NC1(CN2CCN(C(=O)N[C@@H](C(=O)N[C@H]3Cc4ccc(F)c(C(=O)O)c4OB3O)c3cc(F)c(O)c(O)c3Cl)C(=O)C2=O)CC1 (single isomer, unassigned) [Example 133]	–	–	–	–	–	> 64	16 to 32 (≈ 24.5 to 49.1 µM)	> 64	16 to 32 (≈ 24.5 to 49.1 µM)	> 64	> 64	> 64	> 64
O=C(O)c1cccc2c1OB(O)[C@@H](NC(=O)[C@H](NC(=O)N1CCN(CCF)C(=O)C1=O)c1c(F)cc(O)cc1F)C2 (single isomer, unassigned) [Example 126]	–	8 to 16 (≈ 13.8 to 27.7 µM)	0.5 to 1 (≈ 0.865 to 1.73 µM)	8 to 16 (≈ 13.8 to 27.7 µM)	2 to 4 (≈ 3.46 to 6.92 µM)	4 to 8 (≈ 6.92 to 13.8 µM)	< 0.125	16 to 32 (≈ 27.7 to 55.3 µM)	1 to 2 (≈ 1.73 to 3.46 µM)	16 to 32 (≈ 27.7 to 55.3 µM)	16 to 32 (≈ 27.7 to 55.3 µM)	4 to 8 (≈ 6.92 to 13.8 µM)	4 to 8 (≈ 6.92 to 13.8 µM)
NCCN1CCN(C(=O)N[C@@H](C(=O)N[C@H]2Cc3ccc(F)c(C(=O)O)c3OB2O)c2cc(F)c(O)c(O)c2Cl)C(=O)C1=O (single isomer, unassigned) [Example 179]	–	–	–	–	–	> 64	16 to 32 (≈ 25.6 to 51.1 µM)	> 64	16 to 32 (≈ 25.6 to 51.1 µM)	> 64	> 64	> 64	> 64
